The values that follow come from ChEMBL document CHEMBL3865848, “Macrocyclic Inhibitors of ERK2 Kinase” (ACS Med Chem Lett, 2016).

The experiment has as its target Mitogen-activated protein kinase 1 (Homo sapiens, UniProt P28482).

Usually IC50 stands for the point on the concentration scale where inhibition reaches its midpoint.

Chain of Mitogen-activated protein kinase 1 (P28482 whole entry): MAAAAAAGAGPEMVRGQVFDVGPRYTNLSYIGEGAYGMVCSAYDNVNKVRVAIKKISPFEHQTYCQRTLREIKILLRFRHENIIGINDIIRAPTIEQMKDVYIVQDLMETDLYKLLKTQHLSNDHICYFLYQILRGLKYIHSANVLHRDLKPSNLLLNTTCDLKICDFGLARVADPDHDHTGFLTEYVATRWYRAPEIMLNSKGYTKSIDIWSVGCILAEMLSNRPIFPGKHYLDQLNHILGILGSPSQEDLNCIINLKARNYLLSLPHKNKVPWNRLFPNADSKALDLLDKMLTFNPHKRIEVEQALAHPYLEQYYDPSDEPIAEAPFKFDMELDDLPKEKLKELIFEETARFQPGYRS
Description: Inhibition of human activated ERK2 assessed as reduction in phosphorylation activity preincubated for 15 mins followed by addition of IMAP peptide as substrate and ATP measured after 60 mins by fluorescence polarization method

For `CCn1ncc2cc3nc(c21)CCCO[C@H](O)[C@H](c1ccccc1)NC(=O)N3`, the IC50 came to 24.3 nM. This counts as double-digit nanomolar.
For the compound `CCn1ncc2cc3nc(c21)CCCO[C@@H](O)[C@H](c1ccccc1)NC(=O)N3`, the IC50 is 118 nM.
